# Where two headings read alike, the source gives them in different places.
# Assays:
# [1] = cited from earlier work
# [2] = test system: Bacillus atrophaeus spores; experiment: Filtering test: spores incubated in test solution, filtered, filter half treated with ozone, colonies counted; type: cell-based; conditions: test solution followed by ~350 ppm ozone, 5 or 10 min
# Excerpt: Bacterial spores: Stainless steel discs with Bacillus atrophaeus spores (log 6, cat #1-6100ST, Raven Biological Laboratories).
# An ozone generator provided ˜350 ppm O3, and a flow rate of ˜25 l/min, using setting No. 1.
# Commercially available sterile single filters (pore size 0.45 μm) and an analytical test filter funnel from Nalgene was used (F-2161, Sigma-Aldrich). For suction, a Rietschle Thomas DTF 6 vacuum pump was used, with a flow rate of ˜6 m3/h, providing a vacuum of ˜150 mbar abs.
# Filtering test: In filtering test experiments the spore solutions were prepared in a volume of 1 ml and processed. Thereto, after an incubation period of 5 min in the appropriate buffer at 40° C. using a rotary shaker, an aliquot of 250 μl of the suspension was transferred onto a sterile single use filters. The filter was washed two times with 10 ml of sterile water. The filter was retrieved under sterile conditions, and the filter was cut into halves using a sterile scissor. Only one half of the filter was treated with ozone, while the other half was kept as control, i.e. without ozone treatment. Finally, both halves were placed onto a TSA plate and incubated at 30° C. Initially Nutrient Agar plates were used, but later on a switch was made to TSA plates, in order to utilize the more pronounced reddish colour of Bacillus atrophaeus colonies which was facilitating analysis and documentation. […]
compound,measurement,setting,value
O=[O+][O-] [ozone],half-life of ozone in gas,[1]; 20 ° C.,approximately 3 days
same,half-life of ozone in gas,[1]; 250° C.,1.5 s
same,sterilizing/disinfecting/killing effect (in words),[2],increased after 10 min compared to 5 min

# From patent US20090274577A1, “STE[…] TREATMENT WITH REDUCTANT AND OXIDANT” (priority 2008, published 2009)
